Experimental data reported in PubChem BioAssay (NCI).
“And” between values parts separate entries of the source, which are not always exact repeats. Equal values may be shown once.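 Cultured in 96-well plates, cells were exposed to test compound for 48 hours across five concentrations. GI50 = concentration required for 50% inhibition of growth. TGI is the concentration that stops growth completely.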

Tests used:
Assay in all cases: NCI-60 cell line screen, 48 h; in the data active = GI50 below about 0.43 µM; inactive = the rest
SK-OV-3 ovarian = tested on: SK-OV-3 ovarian
HS 578T breast = tested on: HS 578T breast
MCF7 breast = tested on: MCF7 breast
HCC-2998 colon = tested on: HCC-2998 colon
HOP-92 NSCLC = tested on: HOP-92 NSCLC
IGROV1 ovarian = tested on: IGROV1 ovarian
OVCAR-5 ovarian = tested on: OVCAR-5 ovarian
SW-620 colon = tested on: SW-620 colon
SR leukemia = tested on: SR leukemia
OVCAR-3 ovarian = tested on: OVCAR-3 ovarian

CC(C)(CO)N=Cc1ccccc1[O-].CC(C)(CO)N=Cc1ccccc1[O-].[Co+2]
> 90.4 µM: TGI (SR leukemia)
inactive: GI50 (SK-OV-3 ovarian) > 100 µM | GI50 (HS 578T breast) > 100 µM | GI50 (MCF7 breast) 27.3 µM | GI50 (HCC-2998 colon) 75.4 µM | GI50 (HOP-92 NSCLC) 12.9 µM | GI50 (IGROV1 ovarian) 84.3 µM | GI50 (OVCAR-5 ovarian) > 79.7 µM | GI50 (SW-620 colon) 72.4 µM | GI50 (SR leukemia) 14.4 µM | GI50 (OVCAR-3 ovarian) 36.3 µM
> 100 µM: TGI (SK-OV-3 ovarian) | TGI (HS 578T breast) | TGI (MCF7 breast) | TGI (HCC-2998 colon) | TGI (IGROV1 ovarian) | TGI (OVCAR-5 ovarian) | TGI (SW-620 colon) | TGI (OVCAR-3 ovarian)
95.7 µM: TGI (HOP-92 NSCLC)

COc1cc(O)c(C(C)=O)c(O)c1
90.8 µM: TGI (HOP-92 NSCLC)
> 100 µM: TGI (SK-OV-3 ovarian) | TGI (HS 578T breast) | TGI (MCF7 breast) | TGI (HCC-2998 colon) | TGI (IGROV1 ovarian) | TGI (OVCAR-5 ovarian) | TGI (SW-620 colon) | TGI (SR leukemia) | TGI (OVCAR-3 ovarian)

CCCCCCCCCCCCCCCCS(=O)(=O)c1ccc(NN)cc1
> 10 µM: TGI (SK-OV-3 ovarian) | TGI (HS 578T breast) | TGI (MCF7 breast) | TGI (HCC-2998 colon) | TGI (HOP-92 NSCLC) | TGI (IGROV1 ovarian) | TGI (OVCAR-5 ovarian) | TGI (SW-620 colon) | TGI (SR leukemia) | TGI (OVCAR-3 ovarian)

Cc1cc(=O)oc2cc(OCCn3c(C)nn(-c4ccc(Cl)cc4)c3=O)ccc12
6.67 µM: TGI (SR leukemia)
> 100 µM: TGI (HS 578T breast) | TGI (MCF7 breast) | TGI (HCC-2998 colon) | TGI (HOP-92 NSCLC) | TGI (IGROV1 ovarian) | TGI (OVCAR-5 ovarian) | TGI (SW-620 colon)
inactive: GI50 (SK-OV-3 ovarian) 3.36 µM | GI50 (HS 578T breast) 2.82 µM | GI50 (MCF7 breast) 2.7 µM | GI50 (HCC-2998 colon) 3.59 µM | GI50 (HOP-92 NSCLC) 16.1 µM | GI50 (IGROV1 ovarian) 35 µM | GI50 (OVCAR-5 ovarian) 21.9 µM | GI50 (SW-620 colon) 2.2 µM | GI50 (SR leukemia) 0.497 µM | GI50 (OVCAR-3 ovarian) 3.25 µM
15.2 µM: TGI (OVCAR-3 ovarian)
48.8 µM: TGI (SK-OV-3 ovarian)

CC(=O)Oc1ccc(C2(c3ccc(OC(C)=O)cc3)C(=O)Nc3ccccc32)cc1
81.3 µM and > 100 µM: TGI (IGROV1 ovarian)
> 100 µM: TGI (SK-OV-3 ovarian) | TGI (HCC-2998 colon) | TGI (OVCAR-5 ovarian) | TGI (SW-620 colon) | TGI (SR leukemia)
> 35.8 µM and 26 µM: TGI (OVCAR-3 ovarian)
> 79.6 µM: TGI (HOP-92 NSCLC)
0.484 µM and 0.7 µM: TGI (HS 578T breast)
active: GI50 (HS 578T breast) 0.0651 µM and 0.153 µM | GI50 (MCF7 breast) 0.229 µM and 0.278 µM | GI50 (OVCAR-3 ovarian) 0.081 µM and 0.131 µM
> 49.3 µM: TGI (MCF7 breast)
inactive: GI50 (SK-OV-3 ovarian) 31.8 µM and 58.9 µM | GI50 (HCC-2998 colon) 29.7 µM and 23.1 µM | GI50 (HOP-92 NSCLC) 11.8 µM and 16.2 µM | GI50 (IGROV1 ovarian) 11.2 µM and 16.8 µM | GI50 (OVCAR-5 ovarian) > 70.8 µM | GI50 (SW-620 colon) 36.7 µM and 31.5 µM | GI50 (SR leukemia) 25.1 µM and 24.2 µM

Fc1cc(-c2nnc3n2N=C(c2ccc(Cl)cc2Cl)CS3)c(Cl)cc1Cl
88.1 µM: TGI (OVCAR-3 ovarian)
> 100 µM: TGI (SK-OV-3 ovarian) | TGI (HS 578T breast) | TGI (MCF7 breast) | TGI (HCC-2998 colon) | TGI (HOP-92 NSCLC) | TGI (IGROV1 ovarian) | TGI (OVCAR-5 ovarian) | TGI (SW-620 colon) | TGI (SR leukemia)
inactive: GI50 (SK-OV-3 ovarian) 48 µM | GI50 (HS 578T breast) 33.6 µM | GI50 (MCF7 breast) 31.3 µM | GI50 (HCC-2998 colon) 35 µM | GI50 (HOP-92 NSCLC) 54.2 µM | GI50 (IGROV1 ovarian) 50.4 µM | GI50 (OVCAR-5 ovarian) > 100 µM | GI50 (SW-620 colon) 36.8 µM | GI50 (SR leukemia) > 100 µM | GI50 (OVCAR-3 ovarian) 22.8 µM

O=C(O)C1C2C=CC(O2)C1C(=O)Nc1ncccn1 (stereo not given)
> 100 µM: TGI (SK-OV-3 ovarian) | TGI (HS 578T breast) | TGI (MCF7 breast) | TGI (HOP-92 NSCLC) | TGI (IGROV1 ovarian) | TGI (OVCAR-5 ovarian) | TGI (SW-620 colon) | TGI (SR leukemia) | TGI (OVCAR-3 ovarian)

CCCn1cnc2c(SCc3ccccc3)nc(N)nc21
> 100 µM: TGI (SK-OV-3 ovarian) | TGI (HS 578T breast) | TGI (MCF7 breast) | TGI (HCC-2998 colon) | TGI (IGROV1 ovarian) | TGI (OVCAR-5 ovarian) | TGI (SW-620 colon) | TGI (SR leukemia) | TGI (OVCAR-3 ovarian)
inactive: GI50 (SK-OV-3 ovarian) > 100 µM | GI50 (HS 578T breast) > 100 µM | GI50 (MCF7 breast) > 100 µM | GI50 (HCC-2998 colon) > 100 µM | GI50 (IGROV1 ovarian) > 100 µM | GI50 (OVCAR-5 ovarian) > 100 µM | GI50 (SW-620 colon) > 100 µM | GI50 (SR leukemia) 49.6 µM | GI50 (OVCAR-3 ovarian) > 100 µM

O=C(Nc1cc(S(=O)(=O)c2ccc(Cl)cc2)ccc1Cl)c1cc(I)cc(I)c1O
37.7 µM: TGI (IGROV1 ovarian)
60.1 µM: TGI (SR leukemia)
47.6 µM: TGI (HS 578T breast)
31.5 µM: TGI (SK-OV-3 ovarian)
38.2 µM: TGI (OVCAR-5 ovarian)
32 µM: TGI (SW-620 colon)
inactive: GI50 (SK-OV-3 ovarian) 17.2 µM | GI50 (HS 578T breast) 17.8 µM | GI50 (MCF7 breast) 18.4 µM | GI50 (HCC-2998 colon) 13.2 µM | GI50 (IGROV1 ovarian) 20 µM | GI50 (OVCAR-5 ovarian) 18.3 µM | GI50 (SW-620 colon) 16.7 µM | GI50 (SR leukemia) 26 µM | GI50 (OVCAR-3 ovarian) 17 µM
27.2 µM: TGI (HCC-2998 colon)
34.2 µM: TGI (OVCAR-3 ovarian)
36.9 µM: TGI (MCF7 breast)

C/C(=N\n1c(N)c(C#N)c(-c2ccc(Cl)cc2)c(C#N)c1=O)c1ccncc1
> 100 µM: TGI (HCC-2998 colon) | TGI (IGROV1 ovarian) | TGI (OVCAR-5 ovarian) | TGI (SW-620 colon) | TGI (SR leukemia)
64.6 µM: TGI (SK-OV-3 ovarian)
21.5 µM: TGI (OVCAR-3 ovarian)
inactive: GI50 (SK-OV-3 ovarian) 10.1 µM | GI50 (HS 578T breast) 6.4 µM | GI50 (MCF7 breast) 5.7 µM | GI50 (HCC-2998 colon) > 100 µM | GI50 (HOP-92 NSCLC) 0.61 µM | GI50 (IGROV1 ovarian) 5.02 µM | GI50 (OVCAR-5 ovarian) 60.4 µM | GI50 (SW-620 colon) 31.5 µM | GI50 (SR leukemia) 3.3 µM | GI50 (OVCAR-3 ovarian) 3.7 µM
4.17 µM: TGI (HOP-92 NSCLC)
75.8 µM: TGI (HS 578T breast)
93.9 µM: TGI (MCF7 breast)

O=c1oc2ccc(F)cc2c(=O)n1-c1ccc(Br)cc1F
> 100 µM: TGI (OVCAR-5 ovarian) | TGI (SR leukemia)
active: GI50 (HOP-92 NSCLC) 0.168 µM
inactive: GI50 (SK-OV-3 ovarian) 0.427 µM | GI50 (HS 578T breast) 0.621 µM | GI50 (MCF7 breast) 2.04 µM | GI50 (HCC-2998 colon) 2.9 µM | GI50 (IGROV1 ovarian) 0.444 µM | GI50 (OVCAR-5 ovarian) 3.94 µM | GI50 (SW-620 colon) 1.11 µM | GI50 (SR leukemia) 0.578 µM | GI50 (OVCAR-3 ovarian) 0.436 µM
7.87 µM: TGI (HS 578T breast)
25.5 µM: TGI (SW-620 colon)
> 29.5 µM: TGI (MCF7 breast)
0.528 µM: TGI (HOP-92 NSCLC)
12.9 µM: TGI (OVCAR-3 ovarian)
10.8 µM: TGI (HCC-2998 colon)
6.25 µM: TGI (SK-OV-3 ovarian)
22.7 µM: TGI (IGROV1 ovarian)

C=CC(=O)Nc1cccc(Nc2nc(Nc3ccc(OCCOC(F)F)cc3)ncc2F)c1
> 100 µM: TGI (OVCAR-5 ovarian) | TGI (SW-620 colon) | TGI (SR leukemia)
inactive: GI50 (SK-OV-3 ovarian) 0.706 µM | GI50 (HS 578T breast) 2.13 µM | GI50 (MCF7 breast) 3 µM | GI50 (HCC-2998 colon) 12.6 µM | GI50 (HOP-92 NSCLC) 2.28 µM | GI50 (IGROV1 ovarian) 1.88 µM | GI50 (OVCAR-5 ovarian) 4.12 µM | GI50 (SW-620 colon) 3.27 µM | GI50 (SR leukemia) 2.88 µM | GI50 (OVCAR-3 ovarian) 2.32 µM
14.1 µM: TGI (OVCAR-3 ovarian)
6.75 µM: TGI (HOP-92 NSCLC)
3.34 µM: TGI (SK-OV-3 ovarian)
8.77 µM: TGI (HS 578T breast)
47.6 µM: TGI (HCC-2998 colon)
41.2 µM: TGI (MCF7 breast)
9.61 µM: TGI (IGROV1 ovarian)

Cn1cnc([N+](=O)[O-])c1Sc1nc(N)nc2nc[nH]c12
> 66.3 µM: TGI (HCC-2998 colon)
inactive: GI50 (SK-OV-3 ovarian) 0.727 µM | GI50 (HS 578T breast) 14.5 µM | GI50 (MCF7 breast) 2.47 µM | GI50 (HCC-2998 colon) 3.79 µM | GI50 (HOP-92 NSCLC) 3.1 µM | GI50 (IGROV1 ovarian) 14 µM | GI50 (OVCAR-5 ovarian) 4.48 µM | GI50 (SW-620 colon) 7.43 µM | GI50 (SR leukemia) 0.682 µM | GI50 (OVCAR-3 ovarian) 4.65 µM
> 100 µM: TGI (SK-OV-3 ovarian) | TGI (HS 578T breast) | TGI (MCF7 breast) | TGI (HOP-92 NSCLC) | TGI (IGROV1 ovarian) | TGI (OVCAR-5 ovarian) | TGI (SW-620 colon) | TGI (SR leukemia) | TGI (OVCAR-3 ovarian)
